Patent US20050038062A1, “Methods and materials for the treatment of pain comprising opioid antagonists” (priority 2003, published 2005)
Entries after “also recorded” stand apart in the source; their conditions may differ.

Tests used:
[1] = system: rats with L5/L6 spinal nerve ligation (SNL); conditions: morphine given alone by the intrathecal route; stated as well known; cited from earlier work
[2] = system: rats with L5/L6 spinal nerve ligation (SNL); assay: thermal hyperalgesia: paw-withdrawal latency to radiant heat, rat L5/L6 spinal nerve ligation (SNL) model; type: in vivo; conditions: intrathecal twice daily
Method: (§1) This example describes an evaluation of neuropathic pain in an animal model. An in vivo rat L5/L6 spinal nerve ligation (SNL) study is conducted as described by Kim and Chung (1992). These in vivo experiments to evaluate neuropathic pain with compounds and compositions according to the invention as prescribed herein are conducted on male Sprague-Dawley rats (Harlan; Indianapolis, Ind.) that are 200-225 g at the time of the L5/L6 surgery as described below. The rats are maintained in a climate-controlled room on a 12-h light/dark cycle (lights on at 06:00 h); food and water are provided ad libiturn. The testing is performed in accordance with accepted policies and guidelines for the handling and use of laboratory animals.
In an initial study, the effects of intrathecally delivered morphine and naloxone or morphine alone are tested after ligation of the L5 and L6 spinal nerves in rats. At one week, after a neuropathic pain syndrome of thermal hyperalgesia and tactile allodynia is stabilized, rats receive daily intrathecal injections of vehicle, morphine alone, morphine plus naloxone or naloxone alone for seven days. […] The animals first undergo intrathecal implantation of a catheter that allows for drug delivery at the lumbar (L5) spinal cord region. Animal baseline withdrawals from thermal and tactile stimuli are recorded. Animals then undergo the L5/L6 ligation surgery as described below and are tested for tactile and thermal hypersensitivities, for example, on day 3 through day 7 after the surgery, and then, for example, on day 8, animals begin the twice daily intrathecal administration of vehicle or drug substances in doses as described below. Animals are tested, for example, from about 20 to about 30 minutes after the first daily intrathecal dose for hyperalgesic and anti-allodynia effects for a total of 7 days as described below.
While under halothane anesthesia, an 8 cm length of 32 gauge tubing is inserted in the Sprague-Dawley rats to the level of the lumbar enlargement via an incision made in the atlanto-occipital membrane. The catheter is then secured to the musculature at the site of incision, which is then closed. The rats receive 4.4 mg/kg of gentamycin (intramuscular administration) as a prophylactic precaution and are allowed 5-7 days for recovery before experimentation begins, for example, before L5/L6 ligation surgery begins as described below. […] Intrathecally administered substances are dissolved in saline (to a total volume of 5 μl) prior to administration through a length of tubing connecting the intrathecal catheter with the injection syringe. Progress of the injection is determined by observing the movement of an air bubble through a calibrated length of the tubing. The catheter is cleared by flushing with 9 μl saline.
For these experiments, morphine, when given either as the sole drug or in combination with naltrexone to the rats, is administered to the rats at a dosage ranging from 1-30 micrograms, if given intrathecally. Naltrexone, when given either as the sole drug or in combination with morphine to the rats, is administered to the rats at a dosage ranging from 1 femtogram (fg) to 30 nanograms (ng) if given intrathecally. For other experiments, if given systemically, morphine, when given either as the sole drug or in combination with naltrexone to the rats, is administered to the rats at a dosage ranging from 1 mg/kg to 20 mg/kg. If given systemically, naltrexone, when given either as the sole drug or in combination with morphine to the rats, is administered to the rats at a dosage ranging from 1 femtogram to 300 nanograms. Administration of drug or vehicle to the rat is performed, for example, both on a BID or QID basis. For these experiments, morphine sulfate is purchased from Sigmia (St. Louis, Mo.) and naltrexone hydrochloride is purchased from Tocris (Ellisville, Mo.). These substances are dissolved in sterile 0.9% physiological saline from Baxter (Deerfield, Ill.).

[3] = system: rats with L5/L6 spinal nerve ligation (SNL); assay: tactile allodynia: paw-withdrawal threshold to von Frey filaments, rat L5/L6 spinal nerve ligation (SNL) model; type: in vivo; conditions: naltrexone 0.1 ng alone, intrathecal twice daily; initial study
Method: as §1
In an initial study, the effects of intrathecally delivered morphine and naloxone or morphine alone are tested after ligation of the L5 and L6 spinal nerves in rats. […] Animal baseline withdrawals from thermal and tactile stimuli are recorded. […]
While under halothane anesthesia, an 8 cm length of 32 gauge tubing is inserted in the Sprague-Dawley rats to the level of the lumbar enlargement via an incision made in the atlanto-occipital membrane. […] Progress of the injection is determined by observing the movement of an air bubble through a calibrated length of the tubing. […]

| SMILES | antiallodynic effect [1] | antihyperalgesia ([2]; morphine 10 μg alone, day 8 after SNL (= Day 1 of administration), initial study) [%] | antihyperalgesia ([2]; morphine 10 μg alone, day 9 after SNL (= Day 2), initial study) [%] | antihyperalgesia (activity) ([2]; morphine 10 μg alone, day 11 after SNL (= Day 4), initial study) [%] | tolerance to the antihyperalgesia effect ([2]; morphine 10 μg alone, initial study (day 11 after SNL = Day 4)) | antihyperalgesia, return to baseline ([2]; morphine 10 μg alone, initial study (day 12 after SNL = Day 5)) | effect on allodynia [3] | effect on antihyperalgesia ([2]; naltrexone 0.1 ng alone, initial study) |
| --- | --- | --- | --- | --- | --- | --- | --- | --- |
| CN1CC[C@]23c4c5ccc(O)c4O[C@H]2[C@@H](O)C=C[C@H]3[C@H]1C5 [morphine] | no antiallodynic effect | 65 | 73 | 38 | tolerance to the antihyperalgesia effect by day 11; also recorded: tolerance to the anti-hyperalgesia effect by Day 4 | return to baseline by day 12; also recorded: return to baseline by day 5 |  |  |
| O=C1CC[C@@]2(O)[C@H]3Cc4ccc(O)c5c4[C@@]2(CCN3CC2CC2)[C@H]1O5 [naltrexone] |  |  |  |  |  |  | no effect | no effect |
